Assays:
[1] = Heat treatment test under nitrogen protection (crystal transformation); type: physicochemical; details: for crystal transformation on heating: nitrogen
From the text: At the same time, the above crystal transformation phenomenon can also be confirmed by the absorption/exothermic peaks appearing in FIG. 7 and FIG. 11.

[2] = Suspension competition test of mixed crystalline forms A/B/C/D in saturated solution (thermodynamic transition); type: physicochemical
Experimental: To study the thermodynamic transition relationship of the four anhydrous polymorphs (respectively corresponding to A/B/C/D), samples (each sample was about 5 mg) having crystalline forms A/B/C/D were mixed and added respectively under the conditions of 5° C./room temperature (about 20° C.)/50° C./90° C. to a saturated solution of the compound of formula I (for example, ethanol or methyl tert-butyl ether) (about 1.0 mL), and stirred (magnetic stirring, about 800 rpm). solid was separated (centrifugation, about 10000 rpm, 1 min), and XRPD test was performed.

[3] = Dynamic vapor sorption (DVS) hygroscopicity evaluation, with XRPD before and after; type: physicochemical
Experimental: The DVS curves were collected on a DVS Intrinsic Dynamic Moisture Sorption meter from SMS (Surface Measurement Systems). The relative humidity at 25° C. was corrected with the deliquescence points of LiCl, Mg (NO3)2 and KCl.

[4] = Solid-state stability, one week storage, tested by XRPD and HPLC; type: physicochemical; details: for Purity (Peak area %) / Relative purity (%/Control): one week; for Purity (Peak area %): HPLC; for Relative purity (%/Control): vs 5° C. sealed control
From the text: Samples were removed after one week, and the obtained samples were characterized and tested by XRPD and HPLC to respectively detect changes in crystalline form and purity.

[5] = Pharmacokinetic study, skin application to SD rats; type: in vivo, SD rats (Sprague-Dawley rats); details: for ratio of AUC(0-t) on day 7 to day 1: 12 mg/kg skin application once a day for 7 days
From the text: The obtained blood concentration data were simultaneously used to calculate the relevant pharmacokinetic parameters using the pharmacokinetic processing software WinNonlin v5.2 […] for plasma pharmacokinetic characterization analysis.

In the case of COc1c(C#N)ccc(N2C(=O)C(C)(C)N(c3ccc(C)nc3)C2=S)c1F [crystalline form C, 4-[4,4-dimethyl-3-(6-methylpyridin-3-yl)-5-oxo-2-thioxoimidazolidin-1-yl]-3-fluoro-2-methoxybenzonitrile], the “crystal transformation on heating” value ([1]; further heated to about 166° C. and cooled to room temperature) is reported as “transformed into crystalline form B” and the “crystal transformation on heating” value ([1]; heated to about 148° C.) is reported as “transformed into crystalline forms B/D”.
In the case of COc1c(C#N)ccc(N2C(=O)C(C)(C)N(c3ccc(C)nc3)C2=S)c1F [crystalline form B, 4-[4,4-dimethyl-3-(6-methylpyridin-3-yl)-5-oxo-2-thioxoimidazolidin-1-yl]-3-fluoro-2-methoxybenzonitrile], the “relative stability of the crystalline form” value ([1]; under heating conditions) is reported as “more stable than crystalline forms A/C”.
In the case of COc1c(C#N)ccc(N2C(=O)C(C)(C)N(c3ccc(C)nc3)C2=S)c1F [crystalline form A, 4-[4,4-dimethyl-3-(6-methylpyridin-3-yl)-5-oxo-2-thioxoimidazolidin-1-yl]-3-fluoro-2-methoxybenzonitrile], the “crystal transformation by suspension agitation” value ([2]; less than 90° C.) is reported as “transformed into the form D” and the “crystal transformation on heating” value ([1]; heated to about 160° C. and then cooled to room temperature) is reported as “transformed into crystalline form B”.
For COc1c(C#N)ccc(N2C(=O)C(C)(C)N(c3ccc(C)nc3)C2=S)c1F [crystalline form D, 4-[4,4-dimethyl-3-(6-methylpyridin-3-yl)-5-oxo-2-thioxoimidazolidin-1-yl]-3-fluoro-2-methoxybenzonitrile], the “relative stability of the crystalline form” value ([2]; at room temperature) was “more stable than the crystalline forms A/B/C”, the “hygroscopicity (conclusion in words)” value ([3]; DVS, 0% RH to 80% RH, 25° C.) was “almost no hygroscopicity” and the “crystalline form before and after the DVS test (XRPD)” value ([3]; before vs after DVS experiment) was “maintained the same crystalline form”. For the same compound, the “water absorbed (moisture absorption, DVS)” value ([3]; relative humidity increased from 0% RH to 80% RH, 25° C.) was 0.14 wt %, the “Solid crystalline form after one week” value ([4]; 5° C., sealed (control)) was “Crystalline form D” and the “Purity (Peak area %)” value ([4]; 5° C., sealed (control)) was 99.9 Peak area %. For the same compound, the “Solid crystalline form after one week” value ([4]; 25° C./60% RH, open) was “Crystalline form D”, the “Purity (Peak area %)” value ([4]; 25° C./60% RH, open) was 99.9 Peak area % and the “Relative purity (%/Control)” value ([4]; 25° C./60% RH, open) was 100.0 %/Control. The “Solid crystalline form after one week” value ([4]; 40° C./75% RH, open) was “Crystalline form D”, the “Purity (Peak area %)” value ([4]; 40° C./75% RH, open) was 99.9 Peak area % and the “Relative purity (%/Control)” value ([4]; 40° C./75% RH, open) was 100.0 %/Control. For the same compound, the “ratio of AUC(0-t) on day 7 to day 1” value ([5]; female SD rats) was 0.942, the “ratio of AUC(0-t) on day 7 to day 1” value ([5]; male SD rats) was 1.30 and the “accumulation after repeated administration” value ([5]; male and female SD rats, 12 mg/kg skin application, 7 days) was “no obvious accumulation”.

From US20240182442A1, “ANHYDROUS POLYMORPHS OF ANDROGEN RECEPTOR ANTAGONIST, PREPARATION METHOD THEREFOR, AND USE THEREOF” (SUZHOU KINTOR PHARMACEUTICALS, INC., priority 2021, published 2024)
